This note sets out measurements from ChEMBL document CHEMBL1152753, “BRACO19 analog dimers with improved inhibition of telomerase and hPot 1” (Bioorg Med Chem, 2009).

Active and inactive are the calls of the source. The rule behind the calls is not given here.

A short description of experiment [1]: (§1) Inhibition of human G-quadruplex [TTAGGG]4 DNA templet extension assessed as increase in ligand-induced polymerase stop products by Taq DNA polymerase stop assay.
The species named for experiment [2] is Homo sapiens. The experiment in a line: Induction of G-quadruplex structure formation in human telomeric d[5'G3(T2AG3]-3' DNA assessed as major positive band at 290 nm at 1 mole ligand concentration by CD spectroscopy.
The species entered for experiment [3] is Homo sapiens. In words: Stabilization of human telomeric d[5'G3(T2AG3]-3' assessed as change in melting temperature at 25 uM.
For experiment [4], the target named is Telomerase reverse transcriptase (Homo sapiens, UniProt O14746). The experiment in a line: Inhibition of human telomerase assessed as unincorporated [alpha32P]dGTP.
The target of experiment [5] is T1, Protection of telomeres protein 1 (Homo sapiens, UniProt Q9NUX5).
T1 sequence (Q9NUX5 whole entry): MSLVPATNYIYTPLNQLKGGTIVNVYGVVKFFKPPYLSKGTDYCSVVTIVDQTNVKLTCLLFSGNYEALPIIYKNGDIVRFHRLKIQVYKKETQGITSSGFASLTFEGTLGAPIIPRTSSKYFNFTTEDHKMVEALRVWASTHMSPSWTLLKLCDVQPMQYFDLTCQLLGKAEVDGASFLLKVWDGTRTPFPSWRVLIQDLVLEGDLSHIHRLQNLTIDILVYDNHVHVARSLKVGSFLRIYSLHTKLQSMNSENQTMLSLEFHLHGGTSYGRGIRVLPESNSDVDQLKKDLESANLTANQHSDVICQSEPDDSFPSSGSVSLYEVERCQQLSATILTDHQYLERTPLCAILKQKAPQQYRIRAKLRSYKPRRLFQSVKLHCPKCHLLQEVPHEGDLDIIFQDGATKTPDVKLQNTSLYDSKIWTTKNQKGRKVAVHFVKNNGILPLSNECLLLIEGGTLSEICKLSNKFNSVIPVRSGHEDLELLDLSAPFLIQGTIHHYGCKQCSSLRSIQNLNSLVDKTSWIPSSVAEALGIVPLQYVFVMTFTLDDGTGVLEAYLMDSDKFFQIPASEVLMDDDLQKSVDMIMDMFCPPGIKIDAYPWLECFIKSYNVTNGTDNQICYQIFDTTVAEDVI
The experiment in a line: Inhibition of human 35S-labeled Pot1 binding to human telomeric DNA.

Experiment [6] in a line: Inhibition of non G-quadruplex [TTAGAG]4 DNA templet extension assessed as ligand-induced polymerase stop products by Taq DNA polymerase stop assay.
For experiment [7], the species on record is Homo sapiens. The description is as §1.
Experiment [8] is filed under the species Homo sapiens. In words: Binding affinity to human telomeric d[5'G3(T2AG3]-3' DNA quadruplex assessed as major positive band at 292 nm at 1:1 drug to DNA ratio.
The species named for experiment [9] is Homo sapiens. In words: Binding affinity to human telomeric d[5'G3(T2AG3]-3' DNA quadruplex assessed as major positive band at 292 nm at >1:1 drug to DNA ratio.
The species named for experiment [10] is Homo sapiens. In words: Induction of G-quadruplex structure formation in human telomeric d[5'G3(T2AG3]-3' DNA assessed as major positive band at 295 nm at 2 mole ligand concentration by CD spectroscopy.
Experiment [11] is filed under the species Homo sapiens. The experiment in a line: Binding affinity to human telomeric d[5'G3(T2AG3]-3' DNA quadruplex assessed as major positive band at 292 nm at 2:1 drug to DNA ratio.

Sequence of Telomerase reverse transcriptase (O14746 whole entry): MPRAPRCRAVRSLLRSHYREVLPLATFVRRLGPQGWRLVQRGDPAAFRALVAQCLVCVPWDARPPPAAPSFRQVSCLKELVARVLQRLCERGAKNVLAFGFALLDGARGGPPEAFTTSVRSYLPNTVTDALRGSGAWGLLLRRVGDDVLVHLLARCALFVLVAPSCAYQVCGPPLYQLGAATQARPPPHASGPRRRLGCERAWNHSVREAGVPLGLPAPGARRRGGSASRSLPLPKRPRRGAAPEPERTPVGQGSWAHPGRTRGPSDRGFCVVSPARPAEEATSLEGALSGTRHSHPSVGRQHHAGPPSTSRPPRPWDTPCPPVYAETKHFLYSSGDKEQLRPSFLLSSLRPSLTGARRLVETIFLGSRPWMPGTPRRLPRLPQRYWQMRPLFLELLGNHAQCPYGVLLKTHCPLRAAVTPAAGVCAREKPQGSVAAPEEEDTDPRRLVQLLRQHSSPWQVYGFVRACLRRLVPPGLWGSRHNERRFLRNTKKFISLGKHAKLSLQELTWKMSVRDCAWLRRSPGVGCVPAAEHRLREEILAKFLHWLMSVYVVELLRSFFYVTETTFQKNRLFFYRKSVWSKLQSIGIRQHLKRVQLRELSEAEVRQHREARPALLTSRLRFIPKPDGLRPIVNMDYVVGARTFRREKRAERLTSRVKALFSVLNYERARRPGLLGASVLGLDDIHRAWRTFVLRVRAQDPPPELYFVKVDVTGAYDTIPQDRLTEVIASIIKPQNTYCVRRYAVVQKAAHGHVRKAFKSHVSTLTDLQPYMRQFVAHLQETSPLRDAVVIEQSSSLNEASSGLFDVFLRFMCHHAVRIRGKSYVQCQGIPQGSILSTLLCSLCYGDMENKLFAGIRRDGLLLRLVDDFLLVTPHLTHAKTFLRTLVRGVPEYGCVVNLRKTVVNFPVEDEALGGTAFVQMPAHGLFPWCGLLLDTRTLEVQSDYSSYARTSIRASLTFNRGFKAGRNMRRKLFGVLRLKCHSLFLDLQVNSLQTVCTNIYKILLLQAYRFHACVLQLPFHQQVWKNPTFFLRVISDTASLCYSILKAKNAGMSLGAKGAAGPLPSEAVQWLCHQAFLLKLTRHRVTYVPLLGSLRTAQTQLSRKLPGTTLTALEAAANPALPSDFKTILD

As to `O=C(CCN1CCCC1)Nc1ccc2c(NCNCCNCNc3c4ccc(NC(=O)CCN5CCCC5)cc4nc4cc(NC(=O)CCN5CCCC5)ccc34)c3ccc(NC(=O)CCN4CCCC4)cc3nc2c1`, the values for the EC50 in experiment [1] and in experiment [6] were 0.071 µM and 0.36 µM, respectively. For the same compound, the result in the experiment filed under Homo sapiens [2] was Active. Besides, the thermal shift (ΔTm) in the experiment listed under Homo sapiens [3] stood at 28 °C. The IC50 amounted to 7.5 µM in experiment [4] and 11 µM in experiment [5].
For the compound `O=C(CCN1CCCC1)Nc1ccc2c(NCOCCOCNc3c4ccc(NC(=O)CCN5CCCC5)cc4nc4cc(NC(=O)CCN5CCCC5)ccc34)c3ccc(NC(=O)CCN4CCCC4)cc3nc2c1`, the EC50 in experiment [1] came out at 0.2 µM; in [6] it was 3.9 µM. The Activity result (in the experiment filed under Homo sapiens [7]; in experiment [6]) was “Dose-dependent effect” in each case. In addition, the result in the experiment filed under Homo sapiens [2] and in the experiment listed under Homo sapiens [8] was Active. Moreover, the result in the experiment listed under Homo sapiens [9] was inactive. Moreover, the ΔTm in the experiment listed under Homo sapiens [3] is 20 °C. The IC50 in experiment [4] stood at 9 µM; in experiment [5], 45 µM.
As for `CN(C)c1ccc(Nc2c3ccc(NC(=O)CCN4CCCC4)cc3nc3cc(NC(=O)CCN4CCCC4)ccc23)cc1`, the EC50 in experiment [1] turned out to be 1.8 µM; in experiment [6], 19.1 µM. Besides, the Activity result (in the experiment filed under Homo sapiens [7]; in experiment [6]) was “Dose-dependent effect” in each case. For the same compound, the outcome in the experiment listed under Homo sapiens [10] and in the experiment filed under Homo sapiens [11] was Active. The ΔTm in the experiment filed under Homo sapiens [3] turned out to be 18 °C. In addition, the IC50 in [4] stood at 5.4 µM; in experiment [5], 63 µM.
For the compound `O=C(CCN1CCCC1)Nc1ccc2c(NCCCCCCNc3c4ccc(NC(=O)CCN5CCCC5)cc4nc4cc(NC(=O)CCN5CCCC5)ccc34)c3ccc(NC(=O)CCN4CCCC4)cc3nc2c1`, the half-maximal effective concentration (EC50) in [1] turned out to be 0.85 µM; in experiment [6], 4.5 µM. In the experiment filed under Homo sapiens [2], the result was Active. Further, in the experiment listed under Homo sapiens [3], the ΔTm was 23 °C. Further, the IC50 in experiment [4] was determined as 4 µM; in [5] it was 17 µM.

What is called EC50 is the concentration that produces a half-maximal response. Usually ΔTm stands for the shift of the melting midpoint relative to a reference. In general, IC50 refers to the concentration that inhibits the measured activity by half.
